Tests used:
Chk2 = test: DNA damage response assay (pThr68-Chk2 / total Chk2 western blot); type: cell-based, human; conditions: HeLa cells, [GI99%], 20 hr, normalized to mitoxantrone
Procedure: DNA Damage Response Assay: 250,000 HeLa cells were plated in 35 mm culture dishes and allowed to attach for 8 hr and were then treated with the [GI99%] of each compound for 20 hr (total media volume was […] with 1% DMSO). After treatment cells were lysed in 150 μL detergent buffer containing 1:100 v/v protease inhibitor cocktail (Sigma—St. Louis, Mo.). Lysates were run on denaturing 12% acrylamide gels and transferred to nitrocellulose membranes. The membranes were blocked in blotto, incubated in anti-pThr68-Chk2 antibody (Cell Signaling—Danvers, Mass.) at 1:500 v/v dilution in blotto overnight 4° C., washed, incubated in HRP conjugated anti-rabbit secondary antibody (Jackson) at 1:5,000 v/v dilution in blotto for 1 hr, and then developed. The membranes were then stripped with a reducing buffer, blocked in blotto, incubated in anti-Chk2 antibody (Biolegend—San Diego, Calif.) at 1:500 v/v dilution in blotto overnight at 4° C., washed, incubated in HRP conjugated anti-mouse secondary antibody (Jackson) at 1:5,000 v/v dilution in blotto for 1 hr, and then developed. Membranes were developed with PicoWest Developing Solution (Pierce) and exposed to film. The intensities of bands were quantified as described in the previous section. The data are expressed as the average ratio of pThr68-Chk2 to total Chk2 as normalized to the mitoxantrone control in each of three independent experiments.
Topoisomerase inhibition by most mechanisms should cause activation of DNA damage response pathways because of the production of single and double strand DNA breaks, as is the case with amonafide. […] Therefore, measuring the DNA damage response at a fixed cytotoxic dose ([GI99%]) will determine the extent that DNA damage contributes to the cytotoxicity of these compounds. […] Activation of Chk2 was determined by measuring the ratio of pThr68-Chk2 to total Chk2 in HeLa cells treated with the [GI99%].

[1] = system: HeLa, PC-3M, and MDA-MB-231; test: MTS growth inhibition assay, human cancer cell lines; type: cell-based; conditions: 72 hr, MTS proliferation assay
Procedure: Cell Culture: HeLa (cervical carcinoma), WI-38 (normal human […] fibroblasts), and MDA-MB-231 (breast carcinoma), cells were cultured in DMEM (Invitrogen—Carlsbad, Calif.) and PC-3M (metastatic prostate carcinoma) cells were cultured in RPMI-1640. Peripheral blood mononuclear cells (PBMCs) were voluntarily collected from a healthy laboratory worker by standard sterile phlebotomy techniques and isolated using Vacutainer CPT collection tubes (BD Biosciences—Bedford, Mass.). PBMCs were isolated freshly for each experiment. All DMEM and RPMI-1640 media was supplemented with 10% FBS (Atlanta Biologicals—Lawrenceville, Ga.) and 100 U/mL penicillin and streptomycin (Invitrogen). […]
(§1) Growth Inhibition Assays: HeLa, MDA-MB-231, PC-3M, WI-38, and HUVEC cells were plated at 5,000 cells per well in 96 well plates and allowed to attach for 20 hr (8 hr for HeLa). […] Cell proliferation was measured at t=0 (time at start of treatment) and t=72 hr using MTS AQueous non-radioactive proliferation assay (Promega—Madison, Wis.). […] The absorbance at 490 nm in each well was read with a Spectramax 250 plate reader (Molecular Devices—Sunnyvale, Calif.). […] Data were fit to one site dose response curves in order to obtain specific growth inhibitory concentrations and the relative standard errors of the mean for these concentrations were calculated by the XLfit4 software. […]

HeLa cells [2] = test: Transwell invasion assay; type: cell-based, human; conditions: [GI99%], matrigel, 20 hr
Procedure: Transwell Invasion Assay: HeLa cells were plated at 250,000 per 35 mm well and allowed to attach for 8 hr. The cells were washed with PBS and then treated for 4 hr with the [GI99%] of each compound (or 1% DMSO—vehicle control) in serum free media to decrease the number of invading cells in the beginning of the experiment due to a preliminary lack of drug exposure. The cells were then trypsinized and counted by trypan blue exclusion with a hemacytometer (Sigma—St. Louis, Mo.). Eight micron pore size control well inserts for 12 well plates (BD Biosciences) were coated with 100 μL 1 mg/mL matrigel (Sigma—St. Louis, Mo.) and allowed to solidify at room temperature for 1 hr. The excess matrigel was aspirated and the inserts were gently washed with PBS. The cells were seeded at a density of 300,000 per insert well in a volume of 500 μL serum free media containing a derivative or vehicle. The inserts were then placed in wells containing 700 μL serum free media with the respective compound. After 20 hr the cells on the top of the membranes were gently removed with a cotton swab, the membranes then were fixed in methanol for 1 min, stained in Gills No. 3 Hematoxylin (Sigma—St. Louis, Mo.) for 5 min, rinsed in tap water, and allowed to dry overnight. The membranes were excised, mounted on slides, and the cells were counted under the 40× objective of a bright field microscope. The data are expressed as the average total number of invading cells counted in 20 fields of each membrane, as standardized to the vehicle control, from six experiments.
Effect of derivatives on the malignant phenotype—invasion assay: If A1-A9 have differential targets, DNA binding specificity, or downstream effects they may differentially alter the malignant behavior of cells. Also, anti-cancer compounds can be efficacious against tumors in other ways besides inhibiting growth and inducing death of cancer cells; they can also alter the behavior of malignant cells. Therefore, the ability of A1-A9 and amonafide to alter the invasive behavior of cancer cells in a transwell (also known as Boyden chamber) invasion assay was evaluated, which determines the ability of cells to migrate through a proteinacious gel. This behavior is considered to be representative of cancer cell invasion through the basement membrane of the primary tumor environment. In this assay, treated cells are seeded on to the top of the matrigel-coated porous membrane, allowed to invade through the proteinacious gel onto the underside of the membrane, and then counted.

[3] = system: topoisomerase II (topo II); test: Topoisomerase II inhibition assay (topo II-DNA cleavable complexes in treated cells); type: cell-based, human; conditions: HeLa cells, [GI99%], 20 hr, normalized to mitoxantrone
Procedure: In Vitro Topoisomerase Inhibition: HeLa cells were plated at a density of 1.5 million in 35 mm wells and allowed to attach for 20 hr. They were then treated with each compound at the [GI99%] in 10 mL media for 20 hr. In vitro topoisomerase II inhibition was quantified using TopoGEN's Topoisomerase II In vivo Link Kit according to the protocol included with the kit and according to a previously published protocol [24] with slight modifications. In summary, DNA was isolated from sarkosyl lysed cells, layered on a cesium chloride gradient (total volume ˜7 mL), ultra-centrifuged, and then fractionated to 0.5 mL. The fractions were diluted 1:4 v/v in PBS and the fractions containing the genomic DNA were determined by measuring the absorbance at 260 nm for each fraction. The fractions were then loaded into a slot blotting apparatus and pulled through a nitrocellulose membrane by vacuum. The membrane was blocked in 5% w/v milk in 1×TBST (blotto) for 2 hr, incubated in 1:5,000 v/v topoisomerase II (topo II) primary antibody (TopoGEN) in blotto for 1 hr, washed, and incubated in 1:2,000 v/v HRP conjugated anti-rabbit secondary antibody (Jackson—West Grove, Pa.) in blotto for 45 min, washed and developed with SuperSignal West Pico Chemiluminescent Substrate (Pierce—Rockford, Ill.). The data were processed by dividing the intensity of the 2 or 3 most intense topo II immuno-reactive bands by the amount of DNA in the respective fractions. The band intensity was determined by scanning the developed films with a Kodak Image Station 440 CF and measuring the average pixel intensity of an area slightly larger than each band and subtracting the median background pixel intensity of the perimeter of the same area using Kodak MI software. Etoposide (TopoGEN) and mitoxantrone (Sigma—St. Louis, Mo.) are topo II inhibitors used as positive controls. […] Data were standardized to mitoxantrone in each of three independent experiments. […]

HeLa cells [4] = test: MTS growth inhibition assay, HeLa cells; type: cell-based, human; conditions: concentration used in topo II assay
Procedure: Cell Culture: HeLa (cervical carcinoma), WI-38 (normal human […] fibroblasts), and MDA-MB-231 (breast carcinoma), cells were cultured in DMEM (Invitrogen—Carlsbad, Calif.) and PC-3M (metastatic prostate carcinoma) cells were cultured in RPMI-1640. Peripheral blood mononuclear cells (PBMCs) were voluntarily collected from a healthy laboratory worker by standard sterile phlebotomy techniques and isolated using Vacutainer CPT collection tubes (BD Biosciences—Bedford, Mass.). PBMCs were isolated freshly for each experiment. All DMEM and RPMI-1640 media was supplemented with 10% FBS (Atlanta Biologicals—Lawrenceville, Ga.) and 100 U/mL penicillin and streptomycin (Invitrogen). HUVEC (Human umbilical vein endothelial cells) were cultured in EGM-2 media with supplements provided in the manufacturers BulletKit (Lonza—Walersville, Md.). All cells were maintained at 37° C. and in a 5% CO2 atmosphere.
as §1, with “HeLa). The media was removed and 198 μL of fresh media was added to each well.” for “HeLa).”, “software. Statistical significance (p value) for the selectivity and all subsequent assays was determined with the two tailed homoscedastic Student's t-test.” for “software.”

Row | SMILES | DNA damage response (ratio of pThr68-Chk2 to total Chk2) (Chk2) | growth inhibition potency [1] | invasive behavior (% invading cells vs vehicle) (HeLa cells [2]) | stabilization of topo II-DNA cleavable complexes [3] | [IC99%] (HeLa cells [4]) [µM]
1 | CN(C)CCN1C(=O)c2cccc3cccc(c23)C1=O [A9, 2-[2-(dimethylamino)ethyl]-1H-benz[de]isoquinoline-1,3(2H)-dione] | evoked the strongest DNA damage response | still remains fairly potent | decreases invasive behavior | – | –
2 | CC[C@@]1(O)C(=O)OCc2c1cc1n(c2=O)Cc2cc3ccccc3nc2-1 [camptothecin] | – | – | – | did not cause the stabilization of topo II-DNA cleavable complexes | 0.28
3 | COc1cc([C@@H]2c3cc4c(cc3[C@@H](O[C@@H]3O[C@@H]5CO[C@@H](C)O[C@H]5[C@H](O)[C@H]3O)[C@H]3COC(=O)[C@H]23)OCO4)cc(OC)c1O [etoposide] | – | – | – | caused formation of abundant drug stabilized topo II-DNA cleavable complexes | 9.62
4 | O=C1c2c(O)ccc(O)c2C(=O)c2c(NCCNCCO)ccc(NCCNCCO)c21 [mitoxantrone] | – | – | – | caused formation of abundant drug stabilized topo II-DNA cleavable complexes | 1.01

Source: patent US9878984B2, “Anti-cancer compounds” (NORTHWESTERN UNIVERSITY, priority 2008, dated 2018)
